In patent US20220087996A1, “Histone acetylase p300 inhibitor and use thereof” (HINOVA PHARMACEUTICALS INC., priority 2018, published 2022) one finds IC50 data, which are given here for 25 compounds.

Structures are written as SMILES.

One assay has as its system CWR22RV1 cells. Briefly: Inhibition of proliferation of CWR22RV1 cells (CCK-8). As to conditions: 6 days culture, read-out: IC50 against CWR22RV1 cells. It counts as cell-based, human. The procedure:
1) CWR22RV1 cells were subcultured in cell culture medium, and the cells in good growth condition were seeded in a 96-well plate, 80 μL for each well, and the cell number in each well was 1500. The plate was incubated overnight in a 37° C., 5% CO2 cell incubator. 2) The drug was prepared as 30 mM stock solution with dimethyl sulfoxide (DMSO). Prior to use, the stock solution was diluted 3 times with DMSO, and then further diluted as 3-fold gradient to obtain 9 concentration gradients. Then, each concentration of compound was diluted 200 times with the culture solution (ensuring that the DMSO concentration in the culture system was 0.1%), and two replicate wells were set for each concentration. 20 μL of diluted compound solution was added to the cell culture well (with final concentrations of 10 μM, 3.3 μM. 1.1 μM . . . ), and the plate was gently shaken to mix. In addition, 3 negative control wells containing only cells and 3 blank control wells containing only culture medium were included (6 wells were each added 20 μL DMSO diluted 200 times with culture medium). 2. Result detection: (1) After culturing for 6 days, 10 μL CCK-8 was added to each well, and the plate was continually cultured in a 37° C., 5% CO2 cell incubator for 2.5 h. (2) The absorbance (OD value) was detected at 450 nm using a multifunctional microplate reader. (3) The data were analyzed by Dose-response-inhibition equation in the software GraphPad Prism6, and the IC50 value was obtained.
As to `CNC(=O)Nc1ccc2c(c1)CC[C@@]21OC(=O)N(CC(=O)N2CCCC2c2ccccc2C)C1=O` (some centres unmarked) [Example 324], the IC50 was more than 2000 nM.

Still in this assay, the particulars now being: Homo sapiens, CWR22Rv1, 144 h, 6 days culture, read-out: IC50 against CWR22RV1 cells.
With `Cc1nnn(C)c1-c1ccc2c(c1)CC[C@@]21OC(=O)N(CC(=O)N2[C@@H](C)CC[C@H]2c2ccc(F)cc2)C1=O` [Example 221, (R)-5-(1,4-dimethyl-1H-1,2,3-triazole-5-yl)-3′-(2-((2S,5S)-2-(4-fluorophenyl)-5-methylpyrrolidin-1-yl)-2-oxoethyl)-2,3-dihydrospiro[indene-1,5′-oxazolidine]-2′,4′-dione], the IC50 was more than 2000 nM.

Consider `CNC(=O)Nc1ccc2c(c1)CC[C@@]21OC(=O)N(CC(=O)N2CCCc3ccc(C(F)(F)F)cc32)C1=O` [Example 300, (R)-1-(2′,4′-dioxo-3′-(2-oxo-2-(7-(trifluoromethyl)-3,4-dihydroquinolin-1(2H)-yl)ethyl)-2,3-dihydrospiro[indene-1,5′-oxazolidine]-5-yl)-3-methylurea], for which the IC50 is more than 2000 nM.

As for `CNC(=O)Nc1ccc2c(c1)CC[C@@]21OC(=O)N(CC(=O)N2CCCc3cc(-c4cnn(C)c4)ccc32)C1=O` [Example 302, (R)-1-methyl-3-(3′-(2-(6-(1-methyl-1H-pyrazol-4-yl)-3,4-dihydroquinolin-1 (2H)-yl)-2-oxoethyl)-2′,4′-dioxo-2,3-dihydrospiro[indene-1,5′-oxazolidine]-5-yl)urea], the IC50 was more than 2000 nM.

With `CNC(=O)Nc1ccc2c(c1)CC[C@@]21OC(=O)N(CC(=O)N2CCCC2c2ccccc2)C1=O` (stereo partly drawn) [Example 303, 1-((1R)-2′,4′-dioxo-3′-(2-oxo-2-(2-phenylpyrrolidin-1-yl)ethyl)-2,3-dihydrospiro[indene-1,5′-oxazolidine]-5-yl)-3-methylurea], the IC50 was 500 to 2000 nM.

`CNC(=O)Nc1ccc2c(c1)CC[C@@]21OC(=O)N(CC(=O)N2Cc3cccnc3C2)C1=O` [Example 304, (R)-1-(2′,4′-dioxo-3′-(2-oxo-2-(5H-pyrrolo[3,4-b]pyridin-6(7H)-yl)ethyl)-2,3-dihydrospiro[indene-1,5′-oxazolidine]-5-yl)-3-methylurea]: the IC50 was more than 2000 nM.

As for `CNC(=O)Nc1ccc2c(c1)CC[C@]21OC(=O)N(CC(=O)N2Cc3cccnc3C2)C1=O` [Example 305, (S)-1-(3′-(2-(5,7-dihydro-6H-pyrrolo[3,4-b]pyridin-6-yl)-2-oxoethyl)-2′,4′-dioxo-2,3-dihydrospiro[indene-1,5′-oxazolidine]-5-yl)-3-methylurea], the IC50 is more than 2000 nM.

Regarding `CNC(=O)Nc1ccc2c(c1)CC[C@@]21OC(=O)N(CC(=O)N2CCC[C@@H]2c2ccccc2)C1=O` [Example 306, 1-((R)-2′,4′-dioxo-3′-(2-oxo-2-((R)-2-phenylpyrrolidin-1-yl)ethyl)-2,3-dihydrospiro[indene-1,5′-oxazolidine]-5-yl)-3-methylurea], the IC50 is more than 2000 nM.

Take `Cc1noc(C)c1-c1ccc2c(c1)C1(CC1)CC21OC(=O)N(CC(=O)N(Cc2ccc(F)cc2)[C@@H](C)C(F)(F)F)C1=O` (stereo partly drawn) [Example 308, 2-(5-(3,5-dimethylisoxazol-4-yl)-2′,4′-dioxo-2,3-dihydrospiro[cyclopropane-indene-1,5′-oxazole]-3′-yl)-N-(4-fluorobenzyl)-N—((S)-1,1,1-trifluoropropan-2-yl)acetamide]: the IC50 is not above 500 nM.

Take `CNC(=O)Nc1ccc2c(c1)CC[C@]21OC(=O)N(CC(=O)N2CCC[C@@H]2c2ccccc2)C1=O` [Example 309, 1-((S)-2′,4′-dioxo-3′-(2-oxo-2-((R)-2-phenylpyrrolidin-1-yl)ethyl)-2,3-dihydrospiro[indene-1,5′-oxazolidine]-5-yl)-3-methylurea]: the IC50 lay in the range of 500 to 2000 nM.

As for `CNC(=O)Nc1ccc2c(c1)CC[C@]21OC(=O)N(CC(=O)N2CCC[C@H]2c2ccccc2)C1=O` [Example 310, 1-((S)-2′,4′-dioxo-3′-(2-oxo-2-((S)-2-phenylpyrrolidin-1-yl)ethyl)-2,3-dihydrospiro[indene-1,5′-oxazolidine]-5-yl)-3-methylurea], the IC50 is more than 2000 nM.

On to `CNC(=O)Nc1ccc2c(c1)CC[C@]21OC(=O)N(CC(=O)N2CCc3ccccc3C2)C1=O` [Example 311, (S)-1-(3′-(2-(3,4-dihydroisoquinolin-2(1H)-yl)-2-oxoethyl)-2′,4′-dioxo-2,3-dihydrospiro[indene-1,5′-oxazolidine]-5-yl)-3-methylurea], for which the IC50 is more than 2000 nM.

Take `CNC(=O)Nc1ccc2c(c1)CC[C@]21OC(=O)N(CC(=O)N2C[C@H]3C[C@@H]2CO3)C1=O` [Example 315, 1-((S)-3′-(2-((1R,4R)-2-oxa-5-azabicyclo[2.2.1]heptan-5-yl)-2-oxoethyl)-2′,4′-dioxo-2,3-dihydrospiro[indene-1,5′-oxazolidine]-5-yl)-3-methylurea]: the IC50 is more than 2000 nM.

Regarding `CNC(=O)Nc1ccc2c(c1)CC[C@]21OC(=O)N(Cc2nnc(-c3ccccc3)o2)C1=O` [Example 317, (S)-1-(2′,4′-dioxo-3′-((5-phenyl-1,3,4-oxadiazol-2-yl)methyl)-2,3-dihydrospiro[indene-1,5′-oxazolidine]-5-yl)-3-methylurea], the IC50 is more than 2000 nM.

With `CNC(=O)Nc1ccc2c(c1)CC[C@@]21OC(=O)N(CC(=O)N2CCCC2c2cccc(C)c2)C1=O` (some centres unmarked) [Example 318], the IC50 is more than 2000 nM.

`CNC(=O)Nc1ccc2c(c1)CC[C@@]21OC(=O)N(CC(=O)N2CCCCC2c2ccccc2)C1=O` (stereo partly drawn) [Example 322, 1-((1R)-2′,4′-dioxo-3′-(2-oxo-2-(2-phenylpiperidin-1-yl)ethyl)-2,3-dihydrospiro[indene-1,5′-oxazolidine]-5-yl)-3-methylurea]: the IC50 is more than 2000 nM.

For `CNC(=O)Nc1ccc2c(c1)CC[C@@]21OC(=O)N(CC(=O)N2CCCC2c2ccccc2F)C1=O` (stereo partly drawn) [Example 323, 1-((1R)-3′-(2-(2-(2-fluorophenyl)pyrrolidin-1-yl)-2-oxoethyl)-2′,4′-dioxo-2,3-dihydrospiro[indene-1,5′-oxazolidine]-5-yl)-3-methylurea], the IC50 was more than 2000 nM.

As to `CNC(=O)Nc1ccc2c(c1)CC[C@@]21OC(=O)N(CC(=O)N2CCC[C@H]2C(=O)N2CC3CC2CO3)C1=O` (stereo partly drawn) [Example 328, 1-(3′-(2-((2S)-2-(2-oxa-5-azabicyclo[2.2.1]heptan-5-carbonyl)pyrrolidin-1-yl)-2-oxoethyl)-2′,4′-dioxo-2,3-dihydrospiro[indene-1,5′-oxazolidine]-5-yl)-3-methylurea], the IC50 was more than 2000 nM.

As for `CNC(=O)Nc1ccc2c(c1)CCC21OC(=O)N(CC(=O)N2CCCC2c2ncc[nH]2)C1=O` (centres unmarked) [Example 330, 1-(3′-(2-(2-(1H-imidazol-2-yl)pyrrolidin-1-yl)-2-oxoethyl)-2′,4′-dioxo-2,3-dihydrospiro[indene-1,5′-oxazolidine]-5-yl)-3-methylurea], the IC50 was more than 2000 nM.

On to `CNC(=O)Nc1ccc2c(c1)CC[C@@]21OC(=O)N(CC(=O)N2CCC[C@H]2C#N)C1=O` [Example 331, 1-((R)-3′-(2-((S)-2-cyanopyrrolidin-1-yl)-2-oxoethyl)-2′,4′-dioxo-2,3-dihydrospiro[indene-1,5-oxazolidine]-5-yl)-3-methylurea], for which the IC50 is more than 2000 nM.

`CNC(=O)Nc1ccc2c(c1)CC[C@@]21OC(=O)N(CC(=O)N2CCCC2c2ccccn2)C1=O` (stereo partly drawn) [Example 332, 1-((1R)-2′,4′-dioxo-3′-(2-oxo-2-(2-(pyridin-2-yl)pyrrolidin-1-yl)ethyl)-2,3-dihydrospiro[indene-1,5′-oxazolidine]-5-yl)-3-methylurea]: the IC50 was more than 2000 nM.

For the compound `CNC(=O)Nc1ccc2c(c1)CC[C@@]21OC(=O)N(CC(=O)N2CCC[C@H]2c2cc(C)n[nH]2)C1=O` [Example 333, 1-methyl-3-((R)-3′-(2-((S)-2-(3-methyl-1H-pyrazol-5-yl)pyrrolidin-1-yl)-2-oxoethyl)-2′,4′-dioxo-2,3-dihydrospiro[indene-1,5′-oxazolidine]-5-yl)urea], the concentration for half-maximal inhibition (IC50) is more than 2000 nM.

With `CNC(=O)Nc1ccc2c(c1)CC[C@@]21OC(=O)N(CC(=O)N2CCCC2c2cccnc2)C1=O` (stereo partly drawn) [Example 334, 1-((1R)-2′,4′-dioxo-3′-(2-oxo-2-(2-(pyridin-3-yl)pyrrolidin-1-yl)ethyl)-2,3-dihydrospiro[indene-1,5′-oxazolidine]-5-yl)-3-methylurea], the IC50 was more than 2000 nM.

Take `CNC(=O)Nc1ccc2c(c1)CC[C@@]21OC(=O)N(CC(=O)N2CCCC2c2cccc(OC)c2)C1=O` (stereo partly drawn) [Example 335, 1-((1R)-3′-(2-(2-(3-methoxyphenyl)pyrrolidin-1-yl)-2-oxoethyl)-2′,4′-dioxo-2,3-dihydrospiro[indene-1,5′-oxazolidine]-5-yl)-3-methylurea]: the IC50 was more than 2000 nM.

As for `CNC(=O)Nc1ccc2c(c1)CC[C@@]21OC(=O)N(CC(=O)N2CCCC2c2ccccc2Br)C1=O` (stereo partly drawn) [Example 336, 1-((1R)-3′-(2-(2-(2-bromophenyl)pyrrolidin-1-yl)-2-oxoethyl)-2′,4′-dioxo-2,3-dihydrospiro[indene-1,5′-oxazolidine]-5-yl)-3-methylurea], the IC50 was more than 2000 nM.

Still in this assay, the particulars now being: Homo sapiens, CWR22Rv1, 144 h, 6 days culture, read-out: IC50 against CWR22RV1 cells (text).
As to `Cc1noc(C)c1-c1ccc2c(c1)C1(CC1)CC21OC(=O)N(CC(=O)N(Cc2ccc(F)cc2)[C@@H](C)C(F)(F)F)C1=O` (stereo partly drawn) [Example 308, 2-(5-(3,5-dimethylisoxazol-4-yl)-2′,4′-dioxo-2,3-dihydrospiro[cyclopropane-indene-1,5′-oxazole]-3′-yl)-N-(4-fluorobenzyl)-N—((S)-1,1,1-trifluoropropan-2-yl)acetamide], the IC50 was not above 500 nM.
